Where “and” joins values, the source holds several entries; their conditions need not be identical. Equal values may be shown once. Where a name gives a salt, the structure may show the parent alone.
Row | melting point | SMILES
1 | 208 to 209 °C | Cc1ccccc1-c1cccc2c1OC(CN)C2 (single isomer, unassigned; (-)) (as salt: hydrochloride) [Example 49, (−)-1-[7-(2-methylphenyl)-2,3-dihydro-1-benzofuran-2-yl]methanamine]
2 | 232 to 233 °C | Cc1ccccc1-c1cccc2c1CC(CN)O2 (single isomer, unassigned; (+)) (as salt: hydrobromid) [Example 5, (+)-1-[4-(2-methylphenyl)-2,3-dihydro-1-benzofuran-2-yl]methanamine]
3 | 195 °C (dec.) | NCC1Cc2cc(Cl)cc(-c3cccc(Cl)c3)c2O1 (racemic) (as salt: hydrochloride) [Example 89, (±)-1-[5-chloro-7-(3-chlorophenyl)-2,3-dihydro-1-benzofuran-2-yl]methanamine]
4 | 174 to 176 °C | COc1cc2c(c(C(C)(C)C)c1)OC(CN)C2 (racemic) (as salt: hydrochloride) [Example 13, (±)-(7-tert-butyl-5-methoxy-2,3-dihydro-1-benzofuran-2-yl)methylamine]
5 | 233 to 235 °C | NCC1Cc2cccc(-c3ccc(Cl)cc3)c2O1 (single isomer, unassigned; (-)) (as salt: hydrobromid) [Example 78, (−)-1-[7-(4-chlorophenyl)-2,3-dihydro-1-benzofuran-2-yl]methanamine]
6 | 183 to 185 °C | Cc1cc(Cl)ccc1-c1cc(F)cc2c1O[C@@H](CN)C2 (as salt: hydrochloride) [Example 549, {[(2R)-7-(4-chloro-2-methylphenyl)-5-fluoro-2,3-dihydro-1-benzofuran-2-yl]methyl}amine]
7 | 178 to 180 °C | CC(C)(C)c1cccc2c1OC(CN)C2 (single isomer, unassigned; (-)) (as salt: hydrochloride) [Example 25, (−)-1-(7-tert-butyl-2,3-dihydro-1-benzofuran-2-yl)methanamine]
8 | > 200 °C | Cc1ccccc1-c1cccc2c1OC(CN)C2 (racemic) (as salt: hydrochloride) [Example 47, (±)-1-[7-(2-methylphenyl)-2,3-dihydro-1-benzofuran-2-yl]methanamine]
9 | 203 to 206 °C | NCC1Cc2cccc(-c3ccc(Cl)cc3Cl)c2O1 (single isomer, unassigned; (-)) (as salt: hydrochloride) [Example 149, (−)-1-[7-(2,4-dichlorophenyl)-2,3-dihydro-1-benzofuran-2-yl]methanamine]
10 | 268 to 271 °C | Cc1cccc(-c2cc(Cl)cc3c2OC(CN)C3)c1 (racemic) (as salt: hydrochloride) [Example 88, (±)-1-[5-chloro-7-(3-methylphenyl)-2,3-dihydro-1-benzofuran-2-yl]methanamine]
11 | 239 to 241 °C | Cc1ccc(-c2cccc3c2CC(CN)O3)cc1 (racemic) (as salt: hydrochloride) [Example 121, (±)-1-[4-(4-methylphenyl)-2,3-dihydro-1-benzofuran-2-yl]methanamine]
12 | 228 to 230 °C and 231 to 233 °C | NC[C@H]1Cc2cc(F)cc(-c3c(Cl)cccc3Cl)c2O1 (as salt: hydrochloride) [Example 550, (−)-{[7-(2,6-dichlorophenyl)-5-fluoro-2,3-dihydro-1-benzofuran-2-yl]methyl}amine]
13 | 186 to 188 °C | NCC1Cc2cccc(-c3ccccc3Cl)c2O1 (single isomer, unassigned; (-)) (as salt: hydrochloride) [Example 129, (−)-1-[7-(2-chlorophenyl)-2,3-dihydro-1-benzofuran-2-yl]methanamine]
14 | 221 to 223 °C | NCC1Cc2ccc(Cl)c(-c3ccccc3Cl)c2O1 (racemic) (as salt: hydrochloride) [Example 400, (±)-{[6-chloro-7-(2-chlorophenyl)-2,3-dihydro-1-benzofuran-2-yl]methyl}amine]
15 | 205 to 206 °C | CC(C)c1ccccc1-c1cccc2c1OC(CN)C2 (single isomer, unassigned; (+)) (as salt: hydrochloride) [Example 62, (+)-[7-(2-isopropylphenyl)-2,3-dihydro-1-benzofuran-2-yl]methylamine]
16 | 244 to 246 °C | NCC1Cc2cccc(-c3ccccc3F)c2O1 (racemic) (as salt: hydrochloride) [Example 50, (±)-1-[7-(2-fluorophenyl)-2,3-dihydro-1-benzofuran-2-yl]methanamine]
17 | 183 to 186 °C | COc1ccc(-c2cccc3c2OC(CN)C3)cc1 (single isomer, unassigned; (+)) (as salt: hydrochloride) [Example 80, (+)-1-[7-(4-methoxyphenyl)-2,3-dihydro-1-benzofuran-2-yl]methanamine]
18 | 193 to 197 °C | NCC1Cc2cc(F)cc(-c3ccccc3C(F)(F)F)c2O1 (single isomer, unassigned; (+)) (as salt: hydrochloride) [Example 152, (+)-1-{5-fluoro-7-[2-(trifluoromethyl)phenyl]-2,3-dihydro-1-benzofuran-2-yl}methanamine]
19 | 208 to 210 °C | NCC1Cc2cccc(-c3ccc(F)cc3)c2O1 (single isomer, unassigned; (-)) (as salt: hydrobromid) [Example 75, (−)-1-[7-(4-fluorophenyl)-2,3-dihydro-1-benzofuran-2-yl]methanamine]

Row | melting point | SMILES
20 | 204 to 206 °C | Cc1ccccc1-c1c(Cl)ccc2c1OC(CN)C2 (racemic) (as salt: hydrochloride) [Example 399, (±)-{[6-chloro-7-(2-methylphenyl)-2,3-dihydro-1-benzofuran-2-yl]methyl}amine]
21 | 195 to 197 °C | CCNCC1Cc2cccc(-c3c(Cl)cccc3Cl)c2O1 (racemic) (as salt: hydrochloride) [Example 390, (±)-N-{[7-(2,6-dichlorophenyl)-2,3-dihydro-1-benzofuran-2-yl]methyl}ethanamine]
22 | 201 to 203 °C | NCC1Cc2cc(Cl)cc(-c3ccccc3)c2O1 (single isomer, unassigned; (+)) (as salt: hydrobromid) [Example 85, (+)-1-(5-chloro-7-phenyl-2,3-dihydro-1-benzofuran-2-yl)methanamine]
23 | 198 to 200 °C | NCC1Cc2cccc(-c3ccc(Cl)cc3Cl)c2O1 (racemic) (as salt: hydrochloride) [Example 83, (±)-1-[7-(2,4-dichlorophenyl)-2,3-dihydro-1-benzofuran-2-yl]methanamine]
24 | 176 to 178 °C | COc1ccc(-c2cccc3c2OC(CN)C3)cc1 (racemic) (as salt: hydrochloride) [Example 79, (±)-1-[7-(4-methoxyphenyl)-2,3-dihydro-1-benzofuran-2-yl]methanamine]
25 | 174 to 175 °C (dec.) | NCC1Cc2cccc(-c3cc(C(F)(F)F)cc(C(F)(F)F)c3)c2O1 (racemic) (as salt: hydrochloride) [Example 32, (±)-1-{7-[3,5-bis(trifluoromethyl)phenyl]-2,3-dihydro-1-benzofuran-2-yl}methanamine]
26 | 158 to 160 °C | CC(C)(C)CCc1cccc2c1OC(CN)C2 (racemic) (as salt: hydrochloride) [Example 118, (±)-1-[7-(3,3-dimethylbutyl)-2,3-dihydro-1-benzofuran-2-yl]methanamine]
27 | 231 to 234 °C | NCC1Cc2cc(Cl)cc(-c3ccccc3Cl)c2O1 (racemic) (as salt: hydrochloride) [Example 87, (±)-1-[5-chloro-7-(2-chlorophenyl)-2,3-dihydro-1-benzofuran-2-yl]methanamine]
28 | 177 to 180 °C (dec.) | CC(C)(C)c1cccc2c1OC(CN)C2 (racemic) (as salt: hydrochloride) [Example 24, (±)-1-(7-tert-butyl-2,3-dihydro-1-benzofuran-2-yl)methanamine]
29 | 135 to 140 °C | NCC1Cc2cccc(-c3ccc4ccccc4c3)c2O1 (racemic) (as salt: hydrochloride) [Example 39, (±)-1-[7-(2-naphthyl)-2,3-dihydro-1-benzofuran-2-yl]methanamine]
30 | 240 to 247 °C (dec.) | NCC1Cc2cc(F)cc(-c3ccccc3F)c2O1 (racemic) (as salt: hydrochloride) [Example 107, (±)-1-[5-fluoro-7-(2-fluorophenyl)-2,3-dihydro-1-benzofuran-2-yl]methanamine]
31 | 234 to 236 °C | NCC1Cc2cccc(-c3ccsc3)c2O1 (single isomer, unassigned; (+)) (as salt: hydrobromid) [Example 45, (+)-1-(7-thien-3-yl-2,3-dihydro-1-benzofuran-2-yl)methanamine]
32 | 229 to 234 °C | Cc1ccccc1-c1cc(F)cc2c1OC(CN)C2 (racemic) (as salt: hydrochloride) [Example 104, (±)-1-[5-fluoro-7-(2-methylphenyl)-2,3-dihydro-1-benzofuran-2-yl]methanamine]
33 | 231 to 232 °C | Cc1ccc(-c2cccc3c2OC(CN)C3)cc1 (racemic) (as salt: hydrochloride) [Example 70, (±)-1-[7-(4-methylphenyl)-2,3-dihydro-1-benzofuran-2-yl]methanamine]
34 | 220 to 222 °C | NCC1Cc2cccc(-c3ccccc3)c2O1 (single isomer, unassigned; (-)) (as salt: hydrochloride) [Example 38, (−)-1-(7-phenyl-2,3-dihydro-1-benzofuran-2-yl)methanamine]
35 | 175 to 178 °C | COc1ccc(-c2cccc3c2OC(CN)C3)c(OC)c1 (racemic) (as salt: hydrochloride) [Example 143, (±)-1-[7-(2,4-dimethoxyphenyl)-2,3-dihydro-1-benzofuran-2-yl]methanamine]
36 | 187 to 189 °C | NCC1Cc2cccc(-c3cccc(Cl)c3)c2O1 (single isomer, unassigned; (+)) (as salt: hydrobromid) [Example 66, (+)-1-[7-(3-chlorophenyl)-2,3-dihydro-1-benzofuran-2-yl]methanamine]
37 | 255 to 260 °C | NCC1Cc2cc(F)cc(-c3ccccc3)c2O1 (racemic) (as salt: hydrochloride) [Example 103, (±)-1-(5-fluoro-7-phenyl-2,3-dihydro-1-benzofuran-2-yl)methanamine]
